In US20210128596A1, “COMPOSITIONS AND METHODS FOR TREATING SEPTIC CARDIOMYOPATHY” (UNIVERSITY OF PENNSYLVANIA, priority 2017, published 2021):
“Also recorded” adds a separate entry of the source.

How the values were obtained:
protein kinase A (PKA) = assay: Protein kinase A (PKA) activity in AC16 cells; type: cell-based, human
Excerpt: AC16 cells were either left untreated or treated with SDG, Liposaccharide (LPS), or both.
Cell culture—A human ventricular cardiomyocyte-derived cell line, designated AC-16, was used for some in vitro experiments. Cells were maintained in Dulbecco's modified Eagle's medium-nutrient mixture F-12 (DMEM-F-12; Invitrogen, Carlsbad, Calif.).

AC16 cells [1] = assay: Mitochondrial superoxide (MitoSOX Red) in LPS-treated AC16 cells; type: cell-based, human; conditions: LPS 12 h with SDG/LGM2605 (50 μM)
Description: AC16 cells were either left untreated or treated for 12 hours with Liposaccharide (LPS) in the absence or presence of SDG, and subsequently stained with mitosox red.
Measurement of mitochondrial superoxide, mitochondrial membrane potential and mitochondrial number—AC16 cells were cultured in sterile cell culture dishware at approximately 80% confluence. After overnight incubation, cells were treated with LPS (1 μg/ml), LPS and LGM2605 (50 μM). LPS and LGM2605 were diluted in serum free media and the control group was incubated as well with serum free media. At 12 hours after the treatment the AC16 cells were loaded with mitochondrial superoxide indicator MitoSOX Red (5 μM, M36008, Molecular Probes) and incubated for 30 minutes in the dark. Excess MitoSOX Red was removed following three washes with PBS solution. MitoSOX Red fluorescence was recorded at 510 (excitation) and 580 nm (emission).

AC16 cells [2] = assay: Mitochondrial number (Mitotracker Red) in LPS-treated AC16 cells; type: cell-based, human
Description: AC16 cells were either left untreated or treated for 12 hours with Liposaccharide (LPS) in the absence or presence of SDG, and mitochondria were stained.
To assess changes in the mitochondrial number, LPS stimulated AC16 cells and adult cardiomyocytes isolated 12 hours post-CLP were stained with 200 nM Mitotracker Red (M22425, Molecular Probes), and incubated for 30 minutes in the dark. Excess Mitotracker Red was removed with three washed of PBS solution. Mitotracker Red fluorescence was recorded at 581 (excitation) and 644 nm (emission).

AC16 cells [3] = assay: mRNA levels of fusion and fission markers, quantitative PCR, LPS; type: cell-based, human
Description: AC16 cells were either left untreated or treated with Liposaccharide (LPS) in the absence or presence of SDG; the levels of DRP1, Opa, MFN1, MFN2, and FIS1 mRNAs were measured in quantitative PCR.
(§1) RNA purification and gene expression analysis—Total RNA was purified from AC16 cells or hearts using the TRIzol reagent according to the instructions of the manufacturer (Invitrogen). DNase-treated RNA was used for cDNA synthesis using the ProtoScript II First Strand cDNA Synthesis Kit (New England Biolabs). Quantitative real-time PCR was performed with the Sybr Select Master Mix (Applied Biosystems). Incorporation of the SYBR green dye into the PCR products was monitored with the Applied Biosystems StepOnePlus Real-Time PCR System. Samples were normalized against mouse 36B4 or human rps13 RNA.

MCU and MICU1 = MCU and MICU1 expression in heart tissue of CLP mice; type: in vivo, mouse
Description: Mice were either sham treated (n=3) or subjected to cecal ligation puncture (CLP, n=6). SDG was administered to three mice following CLP.
as §1
(§2) Protein purification and analysis—Isolated heart tissue or AC16 cells were homogenized in radioimmune precipitation assay buffer containing protease and phosphatase inhibitors (Pierce Protease and Phosphatase Inhibitor Mini Tablets, Thermo Scientific). 30-50 μg of total protein extract was applied to SDS-PAGE and transferred onto nitrocellulose membranes.

[4] = test system: ventricular tissue of septic mice; assay: DHE staining of cardiac tissue (ROS); type: in vivo, mouse; conditions: ventricular tissue 12 hours post-CLP, LGM2605 6 h post-CLP
Description: DHE staining of cardiac tissue—Live myocardium was isolated from mice 12 hours after surgery and sectioned into 10 sections using a clean razor blade. Tissue was stained with 20 μM dihydroethidium (DHE) for 30 minutes at room temperature and imaged on a Zeiss Axio Observer Z1 fluorescent microscope at 490±10 nm excitation and 632±30 nm emission. Oxidized DHE fluoresces red and intercalates DNA. Individual nuclei were measured within each visual field using Zeiss Zen Blue software, and visual fields were averaged to measure mean fluorescence intensity for each mouse.

IκBα = assay: Phosphorylated and total IkBα immunoblot, ventricular tissue; type: in vivo, mouse; conditions: ventricular tissue 12 hours post-surgery
Description: as §2

IL-1α, IL-1β, IL-6, TNFα = assay: Cardiac mRNA expression of inflammatory cytokines; type: in vivo, mouse; conditions: 6 hours or 12 hours post-CLP
Description: as §1

[5] = test system: IL-1α, IL-1β, IL-6, IL-10 and TNFα; assay: Plasma levels of cytokines (Milliplex); type: in vivo, mouse; conditions: plasma 12 hours post-surgery
Excerpt: Inflammatory cytokines measurement—Circulating levels of IL-1α, IL-1β, IL-6, IL-10 and TNFα were quantified simultaneously from frozen plasma samples using the Milliplex MAP Mouse Cytokine kit (MCYTOMAG-70K-05) following the kit specifications. Samples were read using the Luminex MAGPIX multiplexing unit.

[6] = Plasma glucose and triglyceride levels in septic mice; type: in vivo, mouse
[7] = test system: ventricular tissue of septic mice; assay: Mitochondrial biogenesis, fusion and fission gene expression in ventricular tissue; type: in vivo, mouse
Description: as §1

AC16 cells [8] = assay: Mitochondrial membrane potential (TMRM staining) in AC16 cells; type: cell-based, human
Description: To measure mitochondrial membrane potential, AC16 cells were stained with TMRM (62.5 nM, T668, Molecular Probes) for 30 minutes in the dark. TMRM stain was washed in warm PBS three times and imaged at 200× magnification using the Cy3 filter (510 nm excitation wavelength).

## COc1cc(C[C@@H](CO[C@@H]2O[C@H](CO)[C@@H](O)[C@H](O)[C@H]2O)[C@H](CO[C@@H]2O[C@H](CO)[C@@H](O)[C@H](O)[C@H]2O)Cc2ccc(O)c(OC)c2)ccc1O [LGM2605, secoisolariciresinol diglucoside]
Protein kinase A (PKA); SDG alone
  protein kinase A (PKA) activity: increased protein kinase A (PKA) activity
Protein kinase A (PKA); SDG in the presence of LPS
  protein kinase A (PKA) activity: this stimulation was abolished in the presence of LPS
Protein kinase A (PKA); SDG with isoproterenol
  protein kinase A (PKA) activity: the increase was amplified by isoproterenol
AC16 cells [1]
  mitochondrial superoxide levels (Mitosox Red staining): suppressed by LGM2605
AC16 cells [1]; listed as SDG
  mitochondrial superoxide levels (Mitosox Red staining): statistically significant decrease in superoxide levels in LPS-treated cells; also recorded: lower mitosox red staining
AC16 cells [2]; LPS 12 h with SDG/LGM2605
  number of mitochondria (Mitotracker): prevented by treatment with LGM2605
AC16 cells [2]; LPS 12 h with SDG/LGM2605, listed as SDG
  number of mitochondria (Mitotracker): more than compensated for this LPS-dependent drop; also recorded: restored mitochondrial abundance in vitro and in vivo
AC16 cells [3]; 6-hour LPS treatment (FIG. 8A)
  levels of DRP1, Opa, MFN1, MFN2, and FIS1 mRNAs: restored the levels of all the markers
AC16 cells [3]; 12 hour LPS treatment (FIG. 8B)
  levels of DRP1, Opa, MFN1, MFN2, and FIS1 mRNAs: restored the levels of all the markers, although only the change in MFN2 levels was statistically significant
MCU and MICU1; heart tissue, SDG following CLP, listed as SDG
  MCU protein level (western blot): increases MCU protein level; also recorded: increased protein expression of the mitochondrial calcium uniporter
MCU and MICU1; ventricular tissue 12 hours post-CLP, LGM2605 6 hrs post-CLP
  MCU and MICU1 mRNA and protein expression: did not affect expression of these proteins
[4]
  ROS accumulation (DHE staining intensity): alleviated significantly by LGM2605 administration
[4]; listed as SDG
  ROS accumulation (DHE staining intensity): reduced ROS accumulation
IκBα
  phosphorylation of IκBα: prevented by LGM2605
IL-1α, IL-1β, IL-6, TNFα
  cardiac mRNA levels of IL-1α, IL-1β, IL-6, and TNFα: did not reduce mRNA levels
[5]
  circulating levels of IL-1α, IL-1β, IL-6, TNFα and IL-10: did not reduce circulating levels
[6]; 6 hours and 12 hours post-CLP
  plasma glucose levels: hypoglycemia in septic mice was not alleviated by the administration of LGM2605
[6]; 12 hours after surgery
  plasma triglyceride levels: trend of increase, which did not occur in septic mice treated with LGM2605
[7]; ventricular tissue 12 hours post-CLP
  mitochondrial biogenesis markers PGC1α, PGC1β, mtTFA gene expression: None of these changes was affected by LGM2605
[7]; ventricular tissue 12 hrs after CLP
  MFN1, MFN2, DRP1, and FIS1 expression: restored the CLP-mediated changes in MFN1, MFN2, DRP1, and FIS1 expression
AC16 cells [8]; LGM2605 with 50 μM 2,4-DNP, with or without LPS
  TMRM staining (mitochondrial membrane potential): lost its beneficial effect in restoring TMRM staining
AC16 cells [8]; LPS and LGM2605 12 hours
  TMRM staining (mitochondrial membrane potential): significantly restored TMRM staining toward baseline
